From ChEMBL document CHEMBL1157539, “Thousands of chemical starting points for antimalarial lead identification” (Nature, 2010)

Tested on: Plasmodium falciparum
Assay: GSK_TCMDC: Inhibition of Plasmodium falciparum 3D7 in whole erythrocytes, using parasite LDH activity as an index of growth.
Assay type: functional, organism-based

| SMILES | XC50 (Plasmodium falciparum, 3D7) [nM] | XC50 [nM] |
| --- | --- | --- |
| Cc1ccc(O)cc1Nc1ccnc2cc(-c3ccc(CN4CCCCC4)o3)ccc12 | 166 | – |
| Cc1cc(N2CCOCC2)nc2ccc(NC(=O)c3ccc(Cl)c([N+](=O)[O-])c3)cc12 | 1030 | – |
| CC1(C)N=C(N)N=C(N)N1c1ccc(Oc2ccccc2)cc1 | 341 | – |
| COc1cc(CCNC(=O)Cc2ccc3ccccc3c2)ccc1OCc1ccccc1 | 1020 | – |
| O=C(Nc1ccc(CN2CCN(S(=O)(=O)c3cccc(Cl)c3)CC2)cc1)c1cccs1 | 1080 | – |
| Cc1cccc2nc(-c3cccc(-c4cccc(NC(=O)Nc5ccccc5)c4)c3)[nH]c12 | 139 | – |
| CC(C)N(Cc1ccc(-c2ccc(C(F)(F)F)cc2)cc1)C(=O)Cn1c(SCc2cccc(F)c2F)cc(=O)c2cc(CN3CCCCC3)ccc21 | 872 | – |
| CC(Cc1ccc(NC(=O)CCCc2ccccc2)cc1)NCCc1cccc(Cl)c1 (stereo not drawn) | 945 | – |
| COC(=O)c1ccc(CC(C)NCC(O)c2cccc(Br)c2)cc1 (stereo not drawn) | 694 | – |
| Cc1cc(N(C)C)nc(Nc2ccc(NC(=O)c3ccc(F)cc3)cc2)n1 | 709 | – |
| CC[C@H]1CN2CC[C@H]1C[C@H]2[C@H](O)c1ccnc2ccc(OC)cc12 | 154 | – |
| CCN(CC)CCCNc1nccc(N2CCc3ncnc(Nc4ccc(OCc5cccc(F)c5)c(Cl)c4)c3C2)n1 | 111 | – |
| CC/N=C(/NCCCCCCN/C(=N/CC)NCc1ccccc1)NCc1ccccc1 | 702 | – |
| O=C(c1cc2nc3c(c(C(F)(F)F)n2n1)CCc1ccccc1-3)N1CCN2CCCC2C1 (stereo not drawn) | 947 | – |
| COc1ccc(CNCc2ccc(F)cc2)cc1-c1ccc(OC)c(S(=O)(=O)NCCN2CCCC2)c1 | 786 | – |
| Cc1nc(Nc2ccncc2)cc(-c2ccncc2)n1 | 725 | – |
| Nc1nonc1-c1nc2c(-c3cccc(Cl)c3)nccc2n1CCCNC(=O)Cc1ccc(Cl)cc1 | 268 | – |
| COC(=O)c1cc2cccc(NC[C@@H](C)NC[C@H](O)c3cccc(Cl)c3)c2[nH]1 | 631 | – |
| COCC(=O)Nc1nc2ccccc2[nH]1 | 301 | – |
| CCN(Cc1cccc2ccccc12)c1ccc2nc(N)nc(N)c2c1 | 3.2 | – |
| O=C(Nc1cccc(F)c1)NC1CCN(c2ccnc3cc(Cl)ccc23)C1 (stereo not drawn) | 189 | – |
| COCC(C)n1c(C)cc(C(=O)CSc2nnc(Nc3ccccc3)s2)c1C (stereo not drawn) | 736 | – |

| SMILES | XC50 (Plasmodium falciparum, 3D7) [nM] | XC50 [nM] |
| --- | --- | --- |
| Cc1cccc2nc(-c3cccc(-c4cccc(NC(=O)Nc5ccc(Cl)c(Cl)c5)c4)c3)[nH]c12 | 375 | – |
| CC(=O)C1(c2ccccc2)CCN(CCC2(c3ccc(Cl)c(Cl)c3)CN(C(=O)CC(C)C)CCO2)CC1 (stereo not drawn) | 644 | – |
| CCCCCCCN1CC[C@@H](CCC(O)c2ccnc3ccc(OC)cc23)[C@@H](CC)C1 (stereo partly drawn) | 754 | – |
| CN(C)c1ccc(-c2ccc(C(=O)NC3CCN(Cc4ccc5c(c4)OCCO5)CC3)s2)cc1 | 1120 | – |
| CC(C)C(NC(=O)c1c(F)cccc1F)C(=O)Nc1ccc(Cc2nc3ccccc3s2)cc1 (stereo not drawn) | 448 | – |
| CCCC(C(=O)OCCN(CC)CC)(c1ccc(Cl)cc1)c1ccc(Cl)cc1 | 880 | – |
| COc1cccc(C(=O)C2CC2CN(C)CC(O)c2cc(C)c(OC)cc2C)c1 (stereo not drawn) | 1140 | – |
| COc1ccc(CCNC(=O)c2cnc3c(c2)nc(-c2c[nH]c(-c4ccccc4)n2)n3CCc2c[nH]cn2)cc1 | 970 | – |
| CCNc1cc(C)nc(Nc2ccc(NC(=O)c3ccccc3Br)cc2)n1 | 742 | – |
| CCOC(=O)NC1=NC(C)(C)N(OCCCOc2cc(Cl)c(Cl)cc2Cl)C(NC(=O)OCC)=N1 | 31.2 | – |
| O=C(Nc1ccc(-c2ccc(CN3CCNCC3)cc2)cc1)c1cccc(Cl)c1 | 894 | – |
| Cc1cccc2nc(-c3ccc(-c4ccc(CN5CCN(CC6CCCN(C)C6)CC5)cc4)s3)[nH]c12 (stereo not drawn) | 142 | – |
| CN1CCN(CCCNc2ncc3c(-c4ccc(NC(=O)Nc5cc(C(F)(F)F)ccc5F)c(F)c4)nn(C)c3n2)CC1 | 859 | – |
| c1ccc2[nH]c(-c3ccc(-c4ccc(CN5CCN(CCN6CCOCC6)CC5)cc4)cc3)nc2c1 | 158 | – |
| COc1ccc(OC(C)CNC(=O)c2cc([N+](=O)[O-])ccc2-c2ccc(OC)cc2)cc1 (stereo not drawn) | 1150 | – |
| COc1ccc(C(=O)Cn2nc(-c3ccc(Cl)cc3)ccc2=O)c(OC)c1 | 498 | – |
| Oc1ccc2c(CNC3CCCCC3)c(O)ccc2c1CNC1CCCCC1 | 43.5 | – |
| Cc1ccc2[nH]ncc2c1N(CC1CCCCC1)c1ccnc(Nc2ccc(OCC(O)CN3CC=CCC3)cc2)n1 (stereo not drawn) | 622 | – |
| O=C(Nc1cccc(C(F)(F)F)c1)c1cccc(S(=O)(=O)NCC2CCCN(CC3CCCCC3)C2)c1 (stereo not drawn) | 880 | – |
| Cc1ccc(Nc2nc3cc(N(C)c4ccnc(Nc5cccc(CCS(C)(=O)=O)c5)n4)ccc3n2C)cc1 | 339 | – |
| c1cncc(CCNCc2ccc(-c3ccc(-c4nc5ccccc5[nH]4)s3)cc2)c1 | 213 | – |
| Cc1ccc(N2CCN(C(=O)c3cccc(-c4cncc5nc(-c6ccco6)n(C)c45)c3)CC2)nc1 | 596 | – |

| SMILES | XC50 (Plasmodium falciparum, 3D7) [nM] | XC50 [nM] |
| --- | --- | --- |
| COc1ccc2ncc(Cl)c([C@H](O)CN3CCC(NCc4cc5c(cn4)OCCO5)CC3)c2c1 | 116 | – |
| O=c1cc(NCCCNCc2cc(F)cc(C(F)(F)F)c2)[nH]c2ccccc12 | 1200 | – |
| COc1ccc(C(=O)Nc2ccc(-c3nc4cc(C)ccc4[nH]3)cc2)cc1OC | 761 | – |
| CC(=O)Nc1ccc(Nc2ncc([N+](=O)[O-])c(Nc3ccccc3C(N)=O)n2)cc1 | 366 | – |
| CCOc1ccc2nc3cc(N)ccc3c(N)c2c1 | 527 | – |
| O=C(Nc1ccc2c(c1)OCCO2)c1cc(-c2cccnc2)nc2ccc(Cl)cc12 | 714 | – |
| COc1cc(CNCCCCCCNCc2cc(OC)c(OC)c3ccccc23)c2ccccc2c1OC | 235 | – |
| O=C(NC1CCN(CCCOc2ccnc3cc(Cl)ccc23)C1)c1ccc(Br)cc1 (stereo not drawn) | 1020 | – |
| COc1cc2nc(N3CCN(c4cc(C)ccc4C)CC3)nc(N)c2cc1OC | 851 | – |
| O=C(NC1CC1)c1ccc(N2CCCCN2CCc2ccccc2)c(C(F)(F)F)c1 | 622 | – |
| COc1cc(C(F)(F)F)cc2[nH]c(CNCCCNc3nc4ccccc4[nH]3)cc12 | 280 | – |
| COc1nc(Nc2cccc(C)c2)nc(OC)n1 | 1010 | – |
| Cc1ccc(C2=NNC3(S2)C(=O)Nc2ccc(C)cc23)cc1 (stereo not drawn) | 1020 | – |
| COc1ccc(C2C(C(=O)Nc3cc(Cl)c(OC)cc3OC)c3ccccc3C(=O)N2C)cc1 (stereo not drawn) | 820 | – |
| Cc1ccc2nc(C)n(C3CCN(C(=O)Cc4ccccc4C)CC3)c2c1 | 243 | – |
| COc1ccc(CNCc2ccccc2)cc1-c1ccc(S(=O)(=O)NCCN2CCCC2)c(C)c1 | 856 | – |
| Nc1nc(N)c2c(ccc3nn(Cc4ccccc4)cc32)n1 | 215 | – |
| COc1cc2nc(N3CCN(C(=O)c4ccco4)CC3)nc(NCc3ccccc3)c2cc1OC | 167 | – |
| COc1cccc(C2CCCN(CCCCNC(=O)c3ccc(NC(=O)c4ccc(Cl)cc4)cc3)C2)c1 (stereo not drawn) | 864 | – |
| CCCN(CC(=O)NCCc1ccccc1)c1ccc(C#N)c2ccccc12 | 500 | – |
| COc1ccc(Br)cc1C1C2C(=O)N(c3ccc(Br)cc3)C(=O)C2C2(C(=O)O)CC(OCc3ccccc3)CN12 (stereo not drawn) | 195 | – |
| CCCN1CCC=C(c2cccc(Nc3nccc(Nc4cc(OC)ccc4C)n3)c2)C1 | 1040 | – |

| SMILES | XC50 (Plasmodium falciparum, 3D7) [nM] | XC50 [nM] |
| --- | --- | --- |
| CCOc1cc(C(=O)NCCc2ccc(Cl)c(Cl)c2)ccc1-c1nc2cc(Cl)ccc2[nH]1 | 895 | – |
| O=C(Nc1cccc(-c2cccc(-c3nc4cc(C(F)(F)F)ccc4[nH]3)c2)c1)c1ccoc1 | 277 | – |
| C#CCCC(=O)Nc1cccc(-c2cccc(-c3nc4cccc(C)c4[nH]3)c2)c1 | 736 | – |
| Clc1ccc(CNCC2CCN(CC3CCCCC3)CC2)cc1Cl | 1000 | – |
| COc1cccc(C2C(C(=O)Nc3ccccc3)=C(C)N=c3sc(=Cc4ccc(O)cc4)c(=O)n32)c1 (stereo not drawn) | 579 | – |
| O=C(/C=C/c1ccc(Cl)c(Cl)c1)NCCCCCN1CCC(NC(=S)Nc2ccc(Cl)cc2Cl)CC1 | 738 | – |
| CCNc1cc(C(=O)N[C@@H](Cc2ccccc2)[C@H](O)CNC(C)CC(C)C)c(F)c(N2CCCCS2(=O)=O)c1 (stereo partly drawn) | 1120 | – |
| COC(=O)c1sccc1NC(=S)NC1CCC(CN2CCC(c3c[nH]c4ccccc34)CC2)CC1 (stereo not drawn) | 915 | 574 |
| OC(c1ccccc1)C1CN(CCC2CC3CCC2C3)CCC1(O)c1ccccc1 (stereo not drawn) | 346 | – |
| N#Cc1cccc(COC(=O)C2=C(COc3ccccc3Cl)NC(=O)NC2c2c[nH]c3cnccc23)c1 (stereo not drawn) | 792 | – |
| COc1ccc(CC(C)NCC(O)c2cccc(Cl)c2)cc1C (stereo not drawn) | 902 | – |
| N#Cc1ccc(-c2ccc(C(=O)NC3CCN(CCN4CCc5c(cccc5C(F)(F)F)C4)CC3)cc2)cc1 | 703 | – |
| CS(=O)(=O)CCOCc1ccc(-c2ccc3ncnc(Nc4ccc(OCc5cccc(F)c5)c(Cl)c4)c3c2)o1 | 803 | – |
| Cn1cncc1C(=O)Nc1cccc(-c2ccc(-c3nc4cc(F)ccc4[nH]3)s2)c1 | 872 | – |
| N#Cc1cccc(NC(=O)Nc2cccc(-c3cccc(-c4nc5ccccc5[nH]4)c3)c2)c1 | 90.2 | – |
| CN(C)c1ccc(CN2CCCCC(NC(=O)c3cc(-c4ccccc4F)cs3)C2)cc1 (stereo not drawn) | 826 | – |
| COc1cc(Cc2cnc(N)nc2N)cc(OCCCCC2SC(=O)NC2=O)c1OC (stereo not drawn) | 30.7 | – |
| Cc1ccc(C2(CN3CCC(NC(=O)c4n[nH]cc4Cl)CC3)CCCCC2)cc1 | 321 | – |
| COCCNCc1ccc(-c2ccc(CN(C(=O)NC3CCCCC3)C3CCN(Cc4ccccc4)CC3)cc2)cc1 | 960 | – |
| N#Cc1ccc(CN2CCC(Oc3ccc(NC(=O)c4ccccc4)cc3Cl)CC2)cc1 | 1260 | – |
| CCOC(=O)c1cc(=O)c2ccc(OCC#N)cc2o1 | 1030 | – |
